Experimental data published in patent publication US9957270B2, “Fused pyrimidine-based hydroxamate derivatives” (Agency for Science, Technology and Research, priority 2014, dated 2018).

Legend:
MV-4-11 cells [1] = assay: Caspase activity assay, MV-4-11 cells; format: cell-based, human; conditions: MV-4-11 cells; for EC50: maximal activity at 24 h, read-out: EC50 induction of caspase activity
Protocol: (§1) Cells are cultivated and treated with test compounds in 96-well plates as described in the above Cell Culture and Anti-Proliferative Assays section. […] The incubation time can be extended up to overnight (18 h) if the Caspase activity is low. Staurosporine is used as positive control.
(§2) Y Axis is expressed as Mean±SD if applicable.

PC-3 cells = assay: Caspase activity assay, PC-3 cells; format: cell-based, human; conditions: maximal caspase activity at 48 h
Protocol: as §1, §2

MV-4-11 cells [2] = assay: Cell viability/cytotoxicity assay (CytoTox-Glo), MV-4-11 cells; format: cell-based, human; conditions: MV-4-11 cells, 48 h, CytoTox-Glo, read-out: cell death potency EC50
Protocol: Cells are cultivated and treated with test compounds in 96-well plates as described in the above Cell Culture and Anti-Proliferative Assays section, the content of dead cells and viable cells are measured using CytoTox-Glo™ Cytotoxicity Assay kit (Promega) per manufacture's protocol. Briefly, CytoTox-Glo™ Cytotoxicity Assay Reagent (48 μL/well) is added to the cells in 96-well plate and the luminescent signals are recorded using a BioTek Synergy H4 reader, then Lysis Reagent (48 μL/well) is added and the luminescent signals derived from both dead and viable cells are recorded. Viability can be calculated by subtracting the luminescent signal resulting from experimental cell death from total luminescent values. Staurosporine is used as positive control.
Fold of cell death of treated vs untreated was monitored at different time points. […] Y Axis is expressed as Mean±SD if applicable.

PLC/PRF/5 = assay: cells; conditions: Homo sapiens, PLC-PRF-5, read-out: In Vitro Cellular IC50 PLC/PRF/5
Protocol: (§3) Cells were cultivated at 37° C., 5% CO2 in media containing 10% FBS and 2 mM glutamine Cells were routinely monitored with MycoAlert™ PLUS Mycoplasma Detection Kit (Lonza Walkersville, Inc.) to make sure they were mycoplasma free. Antibiotics (100 U/mL of penicillin and 100 μg/mL of streptomycin) were only added to the media used for compound dilution and cells in 96-well assay plates.
(§4) For a typical screening experiment, cells (100 μL/well) are inoculated into 96 well microtiter plates at plating densities ranging from 2,000 to 30,000 cells/well depending on the doubling time of individual cell lines and assay linearity. […] Suspension cells are treated with test compounds immediately after cell inoculation.
(§5) Test compounds are serially diluted (3-fold or 4-fold, 8-concentration) using the same media and added to the plates (15 to 25 μL/well). After 72 h of cultivation, the plates are assayed for cell cytotoxicity/viability by using the following two methods.
(§6) Cells in plates are fixed with cold trichloroacetic acid (TCA) (50% w/v in DI water, 1/4 volume of the medium in each well), and incubated at 4° C. for 1 h (adherent cells) or 2 h (suspension cells). The plates are washed 5 times (tap water×3, DI water×2) and air-dried. SRB solution 0.4% (w/v) in 1% acetic acid is added to each well (60 μL/well) and the plates are incubated at room temperature for 30 min, then washed with 1% acetic acid solution 4 times, and air-dried.
(§7) The plates are added CellTiter-Glo® Reagent (95 μL/well) and read the luminescence on a BioTek H4 reader per manufacture's protocol.
(§8) The raw data are processed using BioTek's Software Gen5 (v2.03.01) to generate inhibitory IC50 values.

A549 = assay: Anti-proliferative assay (cellular IC50), A549; conditions: Homo sapiens, A549, read-out: In Vitro Cellular IC50 A549
Protocol: as §3, §4, §5, §6, §7, §8

Raji = assay: Anti-proliferative assay (cellular IC50), Raji; conditions: Homo sapiens, read-out: In Vitro Cellular IC50 Raji
Protocol: as §3, §4, §5, §6, §7, §8

A-431 = assay: Anti-proliferative assay (cellular IC50), A-431; conditions: Homo sapiens, A-431, read-out: In Vitro Cellular IC50 A-431
Protocol: as §3, §4, §5, §6, §7, §8

U138MG = assay: Anti-proliferative assay (cellular IC50), U138MG; conditions: Homo sapiens, U138-MG, read-out: In Vitro Cellular IC50 U138MG
Protocol: as §3, §4, §5, §6, §7, §8

HCCLM3 = assay: Anti-proliferative assay (cellular IC50), HCCLM3; conditions: Homo sapiens, HCCLM3, read-out: In Vitro Cellular IC50 HCCLM3
Protocol: as §3, §4, §5, §6, §7, §8

HEL9217 = assay: Anti-proliferative assay (cellular IC50), HEL9217; conditions: Homo sapiens, HEL 92.1.7, read-out: In Vitro Cellular IC50 HEL9217
Protocol: as §3, §4, §5, §6, §7, §8

PI3Kα = molecular target: T1, PI3Kα (Homo sapiens, UniProt P42336); assay: Kinase enzyme assay (ADP-Glo), PI3Kα; format: biochemical; conditions: read-out: In Vitro Enzymatic IC50 PI3Kα
T1 construct: purchased Invitrogen, or BPS Bioscience Inc., or SignalChem PV4788 / 40620 / P27-18H

p110α(E545K)/p85α = molecular target: T2, p110α(E545K)/p85α (Homo sapiens, UniProt P42336, E545K); assay: Kinase enzyme assay (ADP-Glo), PI3Kα (E545K); format: biochemical; conditions: read-out: In Vitro Enzymatic IC50 PI3Kα (E545K)
T2 construct: purchased SignalChem P27-15H

p110α(H1047R)/p85α = molecular target: T3, p110α(H1047R)/p85α (Homo sapiens, UniProt P42336, H1047R); assay: Kinase enzyme assay (ADP-Glo), PI3Kα (H1047R); format: biochemical; conditions: read-out: In Vitro Enzymatic IC50 PI3Kα (H1047R)
T3 construct: purchased BPS 40641

HDAC6 = molecular target: T4, HDAC6 (Homo sapiens, UniProt Q9UBN7); assay: HDAC enzyme assay, recombinant HDAC6
T4 sequence (Q9UBN7 1-1215): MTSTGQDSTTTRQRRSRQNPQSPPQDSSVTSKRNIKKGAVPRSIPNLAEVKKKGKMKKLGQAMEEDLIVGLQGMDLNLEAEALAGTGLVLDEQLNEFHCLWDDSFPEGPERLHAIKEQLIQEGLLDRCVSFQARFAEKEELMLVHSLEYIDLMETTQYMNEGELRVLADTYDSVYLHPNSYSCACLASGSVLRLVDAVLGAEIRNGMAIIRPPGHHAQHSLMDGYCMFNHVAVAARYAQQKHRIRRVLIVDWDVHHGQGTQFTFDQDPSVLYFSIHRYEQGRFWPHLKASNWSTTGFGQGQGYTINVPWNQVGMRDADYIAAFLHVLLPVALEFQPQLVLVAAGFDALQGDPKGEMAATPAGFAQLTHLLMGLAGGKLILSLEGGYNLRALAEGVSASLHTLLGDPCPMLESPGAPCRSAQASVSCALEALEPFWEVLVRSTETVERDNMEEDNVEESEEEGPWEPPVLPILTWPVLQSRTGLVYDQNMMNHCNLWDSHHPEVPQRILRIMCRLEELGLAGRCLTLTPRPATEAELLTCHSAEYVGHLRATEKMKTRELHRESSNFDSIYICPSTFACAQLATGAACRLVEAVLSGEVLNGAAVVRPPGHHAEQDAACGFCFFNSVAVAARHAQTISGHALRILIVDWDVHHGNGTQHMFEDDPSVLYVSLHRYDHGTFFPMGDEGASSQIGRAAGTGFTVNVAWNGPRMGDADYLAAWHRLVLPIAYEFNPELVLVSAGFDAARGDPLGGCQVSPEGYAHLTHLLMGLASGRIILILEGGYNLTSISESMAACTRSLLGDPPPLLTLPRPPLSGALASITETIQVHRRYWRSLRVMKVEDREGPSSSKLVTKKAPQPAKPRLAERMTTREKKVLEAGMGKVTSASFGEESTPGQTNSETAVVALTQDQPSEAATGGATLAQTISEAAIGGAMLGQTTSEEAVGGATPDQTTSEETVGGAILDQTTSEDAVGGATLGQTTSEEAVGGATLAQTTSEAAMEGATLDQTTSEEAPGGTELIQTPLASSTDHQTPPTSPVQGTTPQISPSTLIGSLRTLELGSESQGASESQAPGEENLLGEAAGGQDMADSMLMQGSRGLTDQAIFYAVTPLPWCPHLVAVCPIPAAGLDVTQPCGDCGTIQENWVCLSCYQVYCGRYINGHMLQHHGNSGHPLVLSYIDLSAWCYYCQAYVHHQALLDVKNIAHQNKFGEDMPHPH

[3] = molecular target: HDAC (HeLa nuclear extracts); assay: HDAC enzyme assay, HeLa nuclear extracts; conditions: read-out: In Vitro Enzymatic IC50 HDAC (HeLa)

T2 sequence (P42336 whole entry E545K): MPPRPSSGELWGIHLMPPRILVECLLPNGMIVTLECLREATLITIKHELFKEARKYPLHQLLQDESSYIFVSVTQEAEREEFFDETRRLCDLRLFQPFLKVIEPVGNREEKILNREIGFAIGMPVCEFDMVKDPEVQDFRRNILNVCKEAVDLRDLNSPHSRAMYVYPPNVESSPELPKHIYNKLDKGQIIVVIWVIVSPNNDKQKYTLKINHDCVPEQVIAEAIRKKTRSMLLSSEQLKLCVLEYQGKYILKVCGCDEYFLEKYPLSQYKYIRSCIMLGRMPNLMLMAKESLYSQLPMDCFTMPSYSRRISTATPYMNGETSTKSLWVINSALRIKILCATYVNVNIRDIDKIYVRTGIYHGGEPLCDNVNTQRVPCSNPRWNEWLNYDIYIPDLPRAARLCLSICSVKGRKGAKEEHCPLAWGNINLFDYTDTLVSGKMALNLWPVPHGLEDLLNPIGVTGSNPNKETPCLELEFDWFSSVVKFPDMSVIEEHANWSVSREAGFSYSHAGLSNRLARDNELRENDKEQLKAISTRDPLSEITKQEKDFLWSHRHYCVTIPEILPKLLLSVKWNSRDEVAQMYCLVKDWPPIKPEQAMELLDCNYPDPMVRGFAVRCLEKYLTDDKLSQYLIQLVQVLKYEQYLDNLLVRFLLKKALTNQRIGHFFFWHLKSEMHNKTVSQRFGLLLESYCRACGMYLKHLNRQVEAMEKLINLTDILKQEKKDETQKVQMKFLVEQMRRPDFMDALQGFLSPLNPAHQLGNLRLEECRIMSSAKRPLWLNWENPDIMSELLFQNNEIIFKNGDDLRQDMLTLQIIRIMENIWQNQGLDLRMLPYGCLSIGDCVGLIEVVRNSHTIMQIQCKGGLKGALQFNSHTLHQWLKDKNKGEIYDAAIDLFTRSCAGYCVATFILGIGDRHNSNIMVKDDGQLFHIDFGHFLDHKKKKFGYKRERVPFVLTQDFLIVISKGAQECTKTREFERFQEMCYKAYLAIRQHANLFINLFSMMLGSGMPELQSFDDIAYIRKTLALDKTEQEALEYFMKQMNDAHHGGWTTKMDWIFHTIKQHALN
T2 sequence (P27986 whole entry partner): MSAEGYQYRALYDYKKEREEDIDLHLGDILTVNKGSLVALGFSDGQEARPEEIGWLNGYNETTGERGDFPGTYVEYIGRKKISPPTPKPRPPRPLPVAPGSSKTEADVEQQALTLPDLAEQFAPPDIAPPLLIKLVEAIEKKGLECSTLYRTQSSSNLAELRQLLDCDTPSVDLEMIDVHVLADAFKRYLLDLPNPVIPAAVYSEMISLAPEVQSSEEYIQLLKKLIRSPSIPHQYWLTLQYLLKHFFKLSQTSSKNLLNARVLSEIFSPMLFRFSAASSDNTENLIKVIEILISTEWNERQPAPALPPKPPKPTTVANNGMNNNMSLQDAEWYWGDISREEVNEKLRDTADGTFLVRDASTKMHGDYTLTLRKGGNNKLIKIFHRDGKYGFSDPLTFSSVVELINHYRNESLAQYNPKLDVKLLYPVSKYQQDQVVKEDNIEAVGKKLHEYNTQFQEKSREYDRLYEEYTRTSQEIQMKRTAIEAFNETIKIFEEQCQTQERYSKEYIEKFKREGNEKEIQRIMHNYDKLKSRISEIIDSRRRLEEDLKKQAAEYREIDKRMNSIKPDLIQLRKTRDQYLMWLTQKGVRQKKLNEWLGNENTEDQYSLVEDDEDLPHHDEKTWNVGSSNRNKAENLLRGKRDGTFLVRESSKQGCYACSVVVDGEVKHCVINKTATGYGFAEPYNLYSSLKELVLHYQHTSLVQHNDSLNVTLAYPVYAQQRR
T1 sequence (P42336 whole entry): as the sequence (P42336 whole entry E545K) above, with K545E counted along it
T1 sequence (P27986 whole entry partner): as the sequence (P27986 whole entry partner) above
T3 sequence (P42336 whole entry H1047R): as the sequence (P42336 whole entry E545K) above, with K545E, H1047R counted along it
T3 sequence (P27986 whole entry partner): as the sequence (P27986 whole entry partner) above

SMILES	EC50 (MV-4-11 cells [1]; Homo sapiens, MV4-11)	Induction of caspase activity (comparison) (MV-4-11 cells [1])	Induction of caspase activity (comparison) (PC-3 cells)	EC50 (MV-4-11 cells [2]; Homo sapiens, MV4-11)	IC50 (PLC/PRF/5)	IC50 (A549)	IC50 (Raji)	IC50 (A-431)	IC50 (U138MG)	IC50 (HCCLM3)	IC50 (HEL9217)	IC50 (PI3Kα)	IC50 (p110α(E545K)/p85α)	IC50 (p110α(H1047R)/p85α)	EC50 (MV-4-11 cells [1])	EC50 (MV-4-11 cells [2])	IC50 (HDAC6)	IC50 [3]
CS(=O)(=O)N1CCN(Cc2cc3nc(-c4cccc5[nH]ncc45)nc(N4CCOCC4)c3s2)CC1 [GDC-0941, reference compound]	12.7 µM	very weak activity and potency	very weak activity	2.75 µM	2 to 10 µM	< 0.5 µM	2 to 10 µM	< 0.5 µM	0.5 to 2 µM	0.5 to 2 µM	2 to 10 µM	–	–	–	–	–	–	–
CC(C)n1cnc2c(-c3cccc(OCCCC(=O)NO)c3)nc(N3CCOCC3)nc21 [compound 1]	–	more potent than vorinostat	more potent than vorinostat	–	0.5 to 2 µM	0.5 to 2 µM	0.5 to 2 µM	2 to 10 µM	0.5 to 2 µM	2 to 10 µM	0.5 to 2 µM	1 to 10 µM	1 to 10 µM	1 to 10 µM	0.52 µM	0.19 µM	0.01 to 0.1 µM	0.01 to 0.1 µM
CCn1c(CN(C)Cc2ccc(C(=O)NO)cc2)nc2c(N3CCOCC3)nc(-c3cnc(N)nc3)nc21 [compound 7]	–	–	–	–	–	–	–	–	–	–	–	0.01 to 0.1 µM	0.01 to 0.1 µM	0.01 to 0.1 µM	–	–	0.01 to 0.1 µM	0.1 to 1 µM
